Experiments:
[1] = test system: mice implanted with PEC grafts (CyT203 hESC); test: Glucose stimulated insulin secretion (GSIS): human C-peptide in serum of mice implanted with PEC grafts from hESC; format: in vivo; conditions: experiment 2354; PEC produced from hESC; grafts resulting from heregulin treatment
Excerpt: (§1) To determine whether the change in the composition of PEC and iPEC populations affected in vivo function, PEC and iPEC grafts from most of the experiments described in Table 11 were transplanted into mice substantially as previously described herein and in Applicant's other patent and non-patent publications, including Schulz et al. (2012) and Kroon et al (2008), supra and U.S. Pat. Nos. 7,534,608; 7,695,965; 7,993,920 and 8,278,106, supra. Briefly, PEC and iPEC populations were wholly encapsulated with a […] semi-permeable cell encapsulation device, some of which included micro perforations. The devices were manufactured by Applicant and are described in detail in U.S. Pat. No. 8,278,106, entitled ENCAPSULATION OF PANCREATIC CELLS FROM HUMAN PLURIPOTENT STEM CELLS, filed Nov. 13, 2009, the disclosure of which is incorporated herein by reference in its entirety. Glucose stimulated insulin secretion (GSIS) assays were performed starting from about 56 days post-implant. Blood was collected prior to (fasting) and at combinations of 30 and/or 60 minutes after glucose administration. Graft function was assessed by measuring human C-peptide concentrations in the serum in response to glucose administration.
The amount of human C-peptide released into the serum is indicative of the amount of insulin released. […] Human C-peptide was detected in the serum by at least 8 weeks post-implant. […]

[2] = test system: PEC derived from hESC; test: Flow cytometry analysis of PEC derived from hESC and treated with heregulin and/or FGF2; format: cell-based, human
Excerpt: Table 9 provides a summary of the flow cytometry analysis of PEC cells treated with Hrg1β and FGF2 at stage 3 and/or 4. The endocrine cells are denoted as CHGA positive (or CHGA+) cells and the non-endocrine cells are denoted as CHGA negative (or CHGA−) cells. The endocrine (CHGA+) and non-endocrine cells (CHGA−) may stain positive for other markers, e.g., positive for PDX1 and/or NKX6.1.

[3] = test system: iPS-derived cell cultures (iPEC); test: Flow cytometry analysis of iPEC populations from heregulin treated iPS-derived cell cultures; format: cell-based, human; conditions: hIPSC, 30 ng/mL heregulin at stages 3 and 4
Excerpt: (§2) Changes to the standard method as set forth in Table 7 include, but are not limited to: optimization of the number of times any iPSC is passaged; modulating levels of BMP signaling; modulating iPSC suspension aggregation parameters during expansion and differentiation (e.g. shear force, rotation speed and the like); optimization of the concentrations, time of use and duration of use of growth factors, such as Wnt, Activin and rho-kinase inhibitors; and treatment with other growth factors at various stages 1 through 4 of the differentiation protocol as candidates for improving cell mass, proliferation, differentiation, survival and the like (e.g. ERBB ligands). These many iterative experiments were tested alone, or in combination, to determine how differentiation methods for iPSC during stages 1-4 could be optimized. […] The baseline conditions were similar to those described in Examples 1, 2 and 5 as well as Table 7 herein, except that heregulin was added at stages 3 and 4. Although 30 ng/mL of Hrg1β was used, concentrations ranging from 10 ng/mL to 50 ng/mL, or even greater than 50 ng/mL are suitable. Also, addition of a rho-kinase inhibitor, Y-27632, was maintained in the differentiation cultures as described in Example 2.
(§3) To determine the effect of the addition of heregulin or heregulin and a rho-kinase inhibitor on stage 3 and 4 cell subpopulations, iPEC populations were analyzed by flow cytometry. Table 11 provides a summary of the flow cytometry analysis of various iPEC populations using the formulations set forth in Table 10, as well as such formulations having been modified by increasing the Activin concentration to 200 ng/mL. […] Table 11 also discloses data regarding in vivo function of the cells produced in each experiment.

[4] = test system: iPSC; test: Cell mass of iPSC-derived differentiation cultures for implantation; format: cell-based, human; conditions: heregulin at stages 3 and 4 without a rho-kinase inhibitor; implantation impossible
Excerpt: As such, the provision of heregulin alone or a rho-kinase inhibitor alone is not substantially similar to the sum effect of the two combined. That is, alone neither results in robust glucose responsiveness in vivo but combined they produce glucose responsiveness similar to that of hES-derived cells. Accordingly, it appeared that the provision of both heregulin and a rho-kinase inhibitor is synergistic since their combined effect is greater than the sum of the effect of each separately.

[5] = test system: PEC (hESC); test: Flow cytometry analysis of PEC from heregulin treated hESC-derived cell cultures (E2354); format: cell-based, human
Excerpt: as §2, §3
Under certain conditions, the ratio of subpopulations of cells in the PEC (hESC, E2354) and iPEC (E2314, E2344, E2347) populations were altered. For example, sometimes, the percentage of endocrine (CHGA+) cells decreased and the percentage of non-endocrine cells (CHGA−/NKX6.1+/PDX1+) increased as compared to the baseline (no heregulin) conditions.

[6] = test system: mice implanted with iPEC grafts; test: Glucose stimulated insulin secretion (GSIS): human C-peptide in serum of mice implanted with iPEC grafts; format: in vivo
Excerpt: as §1
The amount of human C-peptide released into the serum is indicative of the amount of insulin released. C-peptide is a short 31 amino acid peptide connecting or linking A and B-chains of proinsulin and preproinsulin, which is secreted by functioning beta or insulin secreting cells. As discussed previously by Kroon et al. (2008) supra and others, human C-peptide measurements are appropriate for assessing the release of de novo-generated insulin by the implanted cells. […] Human C-peptide was detected in the serum by at least 8 weeks post-implant. With additional weeks of implant and fasting, glucose-stimulated C-peptide levels increased with the peak levels of C-peptide shifting from 60 minutes to 30 minutes post-glucose administration, which is indicative of a more rapid response to glucose challenge as the insulin cells mature.

[7] = test system: hES-derived cell aggregates; test: Cell aggregate size of hES-derived cell aggregates in suspension culture; format: cell-based, human
Method: Preliminary studies were performed using Heregulin and FGF. In certain of these studies, Rho-kinase inhibitor, Y-27632, was included.

In the case of Heregulin-1β, the “serum C-peptide compared to baseline controls” value [1] is reported as “does not show higher levels of serum C-peptide”, the “CHGA− NKX6.1− PDX1− (Triple Negative/ Residual Cells)” value ([2]; 10 ng/mL Heregulin-1β at stage 3, control without Hrg and FGF2 13.1, listed as Hrg) is reported as 8.55% and the “CHGA− NKX6.1− PDX1− (Triple Negative/ Residual Cells)” value ([2]; 10 ng/mL Heregulin-1β at stage 3, control without Hrg and FGF2 13.1, listed as Hrg1β) is reported as “did decrease”. For the same molecule, the “CHGA− NKX6.1+ PDX1+ (Non-endocrine)” value ([2]; 10 ng/mL Heregulin-1β at stage 3, control without Hrg and FGF2 54.01) was 61.2%, the “CHGA+ (Endocrine)” value ([2]; 10 ng/mL Heregulin-1β at stage 3, share of PEC population, control without Hrg and FGF2 32.9, listed as Hrg) was 30.3% and the “CHGA+ (Endocrine)” value ([2]; 10 ng/mL Heregulin-1β at stage 3, share of PEC population, control without Hrg and FGF2 32.9, listed as Hrg1β) was “not significantly affected”. For the same molecule, the “CHGA− NKX6.1− PDX1− (Triple Negative/ Residual Cells)” value ([2]; 50 ng/mL Heregulin-1β at stage 3, control 13.1, listed as Hrg) was 6.9%, the “CHGA− NKX6.1− PDX1− (Triple Negative/ Residual Cells)” value ([2]; 50 ng/mL Heregulin-1β at stage 3, control 13.1, listed as Hrg1β) was “did decrease and more so” and the “CHGA+ (Endocrine)” value ([2]; 50 ng/mL Heregulin-1β at stage 3, control 32.9) was 28.9%. The “CHGA− NKX6.1+ PDX1+ (Non-endocrine)” value ([2]; 50 ng/mL Heregulin-1β at stage 3, control 54.01) was 64.2%, the “CHGA− NKX6.1− PDX1− (Triple Negative/ Residual Cells)” value ([3]; Exp. E2314, baseline 3.20) was 9.88% and the “CHGA− NKX6.1− PDX1+ (PDX1 only)” value ([3]; Exp. E2314, baseline 11.32) was 16.83%. For the same molecule, the “CHGA+ (Endocrine)” value ([3]; Exp. E2314, baseline 19.83) was 9.00%, the “CHGA− NKX6.1+ PDX1+ (Non-endocrine)” value ([3]; Exp. E2314, baseline 65.59) was 64.21% and the “CHGA− NKX6.1− PDX1− (Triple Negative/ Residual Cells)” value ([3]; Exp. E2344, baseline 1.80) was 2.75%. For the same molecule, the “CHGA− NKX6.1− PDX1+ (PDX1 only)” value ([3]; Exp. E2344, baseline 5.45) was 11.23%, the “CHGA− NKX6.1+ PDX1+ (Non-endocrine)” value ([3]; Exp. E2344, baseline 36.15) was 49.00% and the “CHGA+ (Endocrine)” value ([3]; Exp. E2344, baseline 56.51) was 36.13%. For the same molecule, the “CHGA− NKX6.1− PDX1− (Triple Negative/ Residual Cells)” value ([3]; Exp. E2347, baseline 2.11) was 1.68%, the “CHGA− NKX6.1− PDX1+ (PDX1 only)” value ([3]; Exp. E2347, baseline 10.97) was 12.30% and the “CHGA− NKX6.1+ PDX1+ (Non-endocrine)” value ([3]; Exp. E2347, baseline 37.16) was 68.91%. For the same molecule, the “CHGA+ (Endocrine)” value ([3]; Exp. E2347, baseline 49.78) was 17.27%, the “CHGA− NKX6.1− PDX1− (Triple Negative/ Residual Cells)” value ([3]; Exp. E2380, baseline 9.10) was 7.03% and the “CHGA− NKX6.1− PDX1+ (PDX1 only)” value ([3]; Exp. E2380, baseline 12.08) was 17.24%. The “CHGA− NKX6.1+ PDX1+ (Non-endocrine)” value ([3]; Exp. E2380, baseline 38.18) was 29.72%, the “CHGA+ (Endocrine)” value ([3]; Exp. E2380, baseline 41.16) was “increased rather than decreased” and the “CHGA+ (Endocrine)” value ([3]; Exp. E2380, baseline 41.16, listed as Hg) was 45.91%. For the same molecule, the cell mass [4] was “visibly poor cell mass”, the “CHGA− NKX6.1− PDX1− (Triple Negative/ Residual Cells)” value ([5]; Exp. E2354, 30 ng/mL heregulin at stages 3 and 4, baseline 1.75) was 1.86% and the “CHGA− NKX6.1− PDX1+ (PDX1 only)” value ([5]; Exp. E2354, 30 ng/mL heregulin at stages 3 and 4, baseline 2.89) was 8.10%. For the same molecule, the “CHGA+ (Endocrine)” value ([5]; Exp. E2354, 30 ng/mL heregulin at stages 3 and 4, baseline 33.39) was 16.18%, the “CHGA− NKX6.1+ PDX1+ (Non-endocrine)” value ([5]; Exp. E2354, 30 ng/mL heregulin at stages 3 and 4, baseline 62.01) was 73.00% and the “increase of serum human C-peptide compared to grafts prepared without heregulin (baseline)” value ([6]; experiment 2380, 60 minutes post glucose administration) was about 5 fold. For the same molecule, the “serum human C-peptide” value ([6]; experiment 2380, iPEC grafts resulting from heregulin treatment, 60 minutes post glucose administration, baseline 200 pM) was 933 pM, the “serum human C-peptide post glucose administration compared to baseline controls” value ([6]; grafts resulting from heregulin treatment, in general (FIGS. 7A-7C)) was “higher levels of serum human C-peptide” and the cell aggregate size ([7]; 10 ng/mL for one day at stage 1, compared to suspension culture without Heregulin-1β, preliminary studies) was “increased the cell aggregate size”. The aggregate disk size ([7]; Hrg1β increased from 10 ng/mL to 50 ng/mL at stage 3) was “aggregate disk size increased”.

With Fibroblast growth factor 2 [FGF2] the “CHGA− NKX6.1− PDX1− (Triple Negative/ Residual Cells)” value ([2]; 50 ng/mL of FGF2 for 2 days at stage 3, control 13.1) was 9.15%, the “CHGA+ (Endocrine)” value ([2]; 50 ng/mL of FGF2 for 2 days at stage 3, control 32.9) was 11.9% and the “CHGA− NKX6.1+ PDX1+ (Non-endocrine)” value ([2]; 50 ng/mL of FGF2 for 2 days at stage 3, control 54.01) was 79%. The “CHGA− NKX6.1− PDX1− (Triple Negative/ Residual Cells)” value ([2]; 50 ng/mL of FGF2 for 3 days at stage 3, control 13.1) was 22.7%, the “CHGA+ (Endocrine)” value ([2]; 50 ng/mL of FGF2 for 3 days at stage 3, control 32.9) was 0.33% and the “CHGA− NKX6.1+ PDX1+ (Non-endocrine)” value ([2]; 50 ng/mL of FGF2 for 3 days at stage 3, control 54.01) was 76.9%. The cell aggregate size ([7]; 3 days of 50 ng/mL FGF2 at stage 3 compared to 2 days) was “increase in cell aggregate size”.

`C[C@@H](N)[C@H]1CC[C@H](C(=O)Nc2ccncc2)CC1` [rho-kinase inhibitor, Y-27632, reference compound] was tested, and the “in vivo function of graft” value ([6]; rho-kinase inhibitor alone (baseline conditions, no heregulin)) was “poor in vivo function”.
